# Results as given in PubChem BioAssay (NCI).
#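 Tested at 5 concentrations; 48 h exposure; 96-well plates; endpoints linearly interpolated, else capped at highest concentration. TGI: total growth inhibition.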
# Tests used:
# Assay in all cases: NCI anticancer screen, dose series, 48 h
# [1] = test system: 786-0 renal
# [2] = test system: A498 renal
# [3] = test system: A549 NSCLC
# [4] = test system: ACHN renal
# [5] = test system: BT-549 breast
# [6] = test system: CAKI-1 renal
# [7] = test system: COLO 205 colon
# [8] = test system: DLD-1 colon
# [9] = test system: DMS 114 small cell lung
# [10] = test system: DMS 273 small cell lung
# [11] = test system: DU-145 prostate
# [12] = test system: EKVX NSCLC
# [13] = test system: HCC-2998 colon
# [14] = test system: HCT-116 colon
# [15] = test system: HCT-15 colon
# [16] = test system: HOP-18 NSCLC
# [17] = test system: HOP-62 NSCLC
# [18] = test system: HOP-92 NSCLC
# [19] = test system: HS 578T breast
# [20] = test system: HT29 colon
# [21] = test system: IGROV1 ovarian
# [22] = test system: KM12 colon
# [23] = test system: KM20L2 colon
# [24] = test system: LOX IMVI melanoma
# [25] = test system: LXFL 529 NSCLC
# [26] = test system: M14 melanoma
# [27] = test system: M19-MEL melanoma
# [28] = test system: MALME-3M melanoma
# [29] = test system: MDA-MB-231 breast
# [30] = test system: MDA-MB-435
# [31] = test system: MDA-N
# [32] = test system: MOLT-4 leukemia
# [33] = test system: NCI-H226 lung
# [34] = test system: NCI-H23 lung
# [35] = test system: NCI-H460 lung
# [36] = test system: NCI-H522 lung
# [37] = test system: OVCAR-3 ovarian
# [38] = test system: OVCAR-4 ovarian
# [39] = test system: OVCAR-5 ovarian
# [40] = test system: OVCAR-8 ovarian
# [41] = test system: PC-3 prostate
# [42] = test system: RXF 393 renal
# [43] = test system: RXF-631 renal
# [44] = test system: SF-268 CNS
# [45] = test system: SF-295 CNS
# [46] = test system: SF-539 CNS
# [47] = test system: SK-MEL-2 melanoma
# [48] = test system: SK-MEL-28 melanoma
# [49] = test system: SK-MEL-5 melanoma
# [50] = test system: SK-OV-3 ovarian
# [51] = test system: SN12C renal
# [52] = test system: SNB-19 CNS
# [53] = test system: SNB-75 CNS
# [54] = test system: SNB-78 CNS
# [55] = test system: SW-620 colon
# [56] = test system: T-47D breast
# [57] = test system: TK-10 renal
# [58] = test system: U251 CNS
# [59] = test system: UACC-257 melanoma
# [60] = test system: UACC-62 melanoma
# [61] = test system: UO-31 renal
# [62] = test system: XF 498 CNS
# [63] = test system: CCRF-CEM leukemia
# [64] = test system: HL-60(TB) leukemia
# [65] = test system: K-562 leukemia
# [66] = test system: RPMI-8226 leukemia
# [67] = test system: SR leukemia
smiles,measurement,setting,value
Cc1cc(NCCCCCCCNc2cc(C)nc3cc([N+](=O)[O-])ccc23)c2ccc([N+](=O)[O-])cc2n1,TGI,[1],39.3 µM
same,TGI,[2],30.4 µM
same,TGI,[3],9.41 µM
same,TGI,[4],28.5 µM
same,TGI,[5],67.3 µM
same,TGI,[6],65.2 µM
same,TGI,[7],27 µM
same,TGI,[8],3.55 µM
same,TGI,[9],3.28 µM
same,TGI,[10],15.5 µM
same,TGI,[11],11 µM
same,TGI,[12],35.9 µM
same,TGI,[13],> 55.6 µM
same,TGI,[14],3.56 µM
same,TGI,[15],9.8 µM
same,TGI,[16],31.1 µM
same,TGI,[17],42 µM
same,TGI,[18],47 µM
same,TGI,[19],5.53 µM
same,TGI,[20],8.43 µM
same,TGI,[21],37.1 µM
same,TGI,[22],3.74 µM
same,TGI,[23],32 µM
same,TGI,[24],5.69 µM
same,TGI,[25],3.14 µM
same,TGI,[26],41.2 µM
same,TGI,[27],35.9 µM
same,TGI,[28],> 71.1 µM
same,TGI,[29],6.58 µM
same,TGI,[30],39 µM
same,TGI,[31],3.18 µM
same,TGI,[32],4.23 µM
same,TGI,[33],37.4 µM
same,TGI,[34],> 24.9 µM
same,TGI,[35],6.36 µM
same,TGI,[36],2.78 µM
same,TGI,[37],25 µM
same,TGI,[38],4.31 µM
same,TGI,[39],29.8 µM
same,TGI,[40],3.85 µM
same,TGI,[41],31.1 µM
same,TGI,[42],22.9 µM
same,TGI,[43],> 45.9 µM
same,TGI,[44],7.5 µM
same,TGI,[45],26.4 µM
same,TGI,[46],39.5 µM
same,TGI,[47],98.3 µM
same,TGI,[48],10.1 µM
same,TGI,[49],29.9 µM
same,TGI,[50],49.3 µM
same,TGI,[51],13.4 µM
same,TGI,[52],39.5 µM
same,TGI,[53],40.9 µM
same,TGI,[54],> 31.6 µM
same,TGI,[55],4.61 µM
same,TGI,[56],18.5 µM
same,TGI,[57],39 µM
same,TGI,[58],27.4 µM
same,TGI,[59],36.9 µM
same,TGI,[60],53.2 µM
same,TGI,[61],29 µM
same,TGI,[62],> 48.1 µM
O=C(Cc1ccccc1)NN1C(=O)C(Cl)C1c1ccccc1O (stereo not given),TGI,[1],> 100 µM
same,TGI,[3],> 100 µM
same,TGI,[4],> 100 µM
same,TGI,[6],> 100 µM
same,TGI,[63],> 100 µM
same,TGI,[7],> 100 µM
same,TGI,[8],> 100 µM
same,TGI,[9],46.5 µM
same,TGI,[10],> 100 µM
same,TGI,[12],26.7 µM
same,TGI,[13],> 100 µM
same,TGI,[14],> 100 µM
same,TGI,[15],> 100 µM
same,TGI,[64],18.8 µM
same,TGI,[16],61.2 µM
same,TGI,[17],> 100 µM
same,TGI,[20],> 100 µM
same,TGI,[21],> 100 µM
same,TGI,[65],> 100 µM
same,TGI,[23],> 100 µM
same,TGI,[24],> 100 µM
same,TGI,[25],> 100 µM
same,TGI,[26],30.9 µM
same,TGI,[27],89.6 µM
same,TGI,[28],86.1 µM
same,TGI,[32],> 100 µM
same,TGI,[33],52.5 µM
same,TGI,[34],> 100 µM
same,TGI,[35],38.2 µM
same,TGI,[36],> 100 µM
same,TGI,[37],> 100 µM
same,TGI,[38],> 100 µM
same,TGI,[39],> 100 µM
same,TGI,[40],> 100 µM
same,TGI,[66],> 100 µM
same,TGI,[42],> 100 µM
same,TGI,[44],> 100 µM
same,TGI,[45],> 100 µM
same,TGI,[47],> 100 µM
same,TGI,[48],> 100 µM
same,TGI,[50],> 100 µM
same,TGI,[51],> 100 µM
same,TGI,[52],82 µM
same,TGI,[53],> 100 µM
same,TGI,[54],> 100 µM
same,TGI,[67],> 100 µM
same,TGI,[55],> 100 µM
same,TGI,[57],> 100 µM
same,TGI,[58],> 100 µM
same,TGI,[59],71.5 µM
same,TGI,[60],> 100 µM
same,TGI,[61],36.8 µM
same,TGI,[62],> 100 µM
